Here are results for 2 molecules from article PMC3940921 (Oncogenesis, 2014).

Where two headings read alike, the source gives them in different places.

One assay concerns K562 cells. Description: Proliferation of K562 cells with or without IFN-γ. The class given is cell-based. As to conditions: Homo sapiens.
For the next assay, the system named is ABI 1/2. Briefly: Western blot of ABI 1/2 levels after carfilzomib. The class given is cell-based. As to conditions: carfilzomib at IC50 levels; cell lines and primary CD34+38- enriched cells.
Assay [1] deals with caspase-3 activity in CML cell lines and primary samples. Description: Caspase-3 activity. The class given is cell-based. As to conditions: pulse treatment 1 h at IC50 doses.
Assay [2] relates to A549 lung carcinoma cell line. Description: Proliferation of A549 cells with or without IFN-γ. The class given is cell-based. As to conditions: Homo sapiens.
The test system of a further assay is CML cell lines. Description: Cell viability of CML cell lines. Type of assay: cell-based. As to conditions: read-out: IC50, viability.
Another assay has as its system LAMA84S cells. Briefly: Proliferation of LAMA84S cells with or without LMP7 siRNA. The class given is cell-based. As to conditions: Homo sapiens, 24 h, read-out: IC50, proliferation, control LAMA84S, continuous exposure for 24 h.
In assay [3] the test system is STAT5 or PI3K signaling pathways. Briefly: Western blot of STAT5 and PI3K signaling after carfilzomib. Type of assay: cell-based. As to conditions: carfilzomib at IC50 doses, 1 h pulse, fresh medium 24 h.
The subject of a further assay is KCL22S cells. Description: Proliferation of KCL22S cells with or without LMP7 siRNA. Type of assay: cell-based. As to conditions: Homo sapiens, 24 h, read-out: IC50, proliferation, control KCL22S, continuous exposure for 24 h.
A further assay has as its system normal CD34+ cells (NBM). Description: LTC-IC assay, normal CD34+ cells. Type of assay: cell-based, human. As to conditions: pulsed 1 h with 50 nM.
The next assay concerns CML CD34+ cells. Description: LTC-IC assay, CML CD34+ cells. The class given is cell-based, human. As to conditions: pulsed 1 h with 50 nM.
The test system of a further assay is CML CD34+38- cells. Briefly: Viability of CML CD34+38- cells. Type of assay: cell-based, human. As to conditions: 50 nM for 1 h, then drug-free medium 24 h.
A further assay deals with NBM CD34+38- cells. Briefly: Viability of normal bone marrow CD34+38- cells. Type of assay: cell-based, human. As to conditions: 50 nM for 1 h, then drug-free medium 24 h.
Assay [4] has as its system LMP7 expression in K562 cells. Description: Induction of LMP7 expression by IFN-γ in K562 cells. As to conditions: 100 U/ml IFN-γ for 72 h. Type of assay: cell-based.
Assay [5] has as its system LMP7 expression in A549 cells. Description: Induction of LMP7 expression by IFN-γ in A549 cells. Type of assay: cell-based. As to conditions: 100 U/ml IFN-γ for 72 h.

Turning to `CC(C)C[C@H](NC(=O)[C@H](CCc1ccccc1)NC(=O)CN1CCOCC1)C(=O)N[C@@H](Cc1ccccc1)C(=O)N[C@@H](CC(C)C)C(=O)[C@@]1(C)CO1` [carfilzomib], the IC50 in the assay on K562 cells (K562, 24 h, read-out: IC50, proliferation) is 608 nM; with K562 cells (K562, read-out: IC50, proliferation), 179 nM; in assay [2] (A549, 24 h, read-out: IC50, proliferation) it was 92 nM; in assay [2] (A549, read-out: IC50, proliferation), 10 nM; in the assay with CML cell lines, 20 to 79 nM; with LAMA84S cells, 7 nM. For the same molecule, the IC50 with KCL22S cells amounted to 5 nM. For the same molecule, the “increased expression of ABI 1/2” value with ABI 1/2 is given as 2.2–6.8 fold. In addition, in [1], the caspase-3 activity entry is “increase in caspase-3 activity”. In addition, the “effect on STAT5 or PI3K signaling pathways” value in assay [3] was “no effect”. In addition, the “colony formation reduced by” value amounted to 44±7% in the assay with normal CD34+ cells (NBM) and 58±11% in the assay with CML CD34+ cells. Also, the “viability reduced by” value in the assay on CML CD34+38- cells is on record as 39±1%; with NBM CD34+38- cells, 19±2%.

B1: IFN-γ: interferon-γ, used at 100 U/ml for 72 h to induce immunoproteasome expression (protein, UniProt P01579 24-161, looked up)
Interferon gamma: QDPYVKEAENLKKYFNAGHSDVADNGTLFLGILKNWKEESDRKIMQSQIVSFYFKLFKNFKDDQSIQKSVETIKEDMNVKFFNSNKKKRDDFEKLTNYSVTDLNVQRKAIHELIQVMAELSPAAKTGKRKRSQMLFRG
With B1, the “increase in the expression of LMP7” value in assay [4] is on record as “fourfold”; in assay [5] it was 10 fold.
